Laboratory results: US8841276B2, “Fulvene and fulvalene analogs and their use in treating cancers” (Emory University, priority 2007, dated 2014)

How the values were obtained:
[1] = test system: light-induced retinal function loss; design: species or system Balb-C mice; conditions: mouse, in vivo
Procedure: Balb-C mice were exposed to dim (20 lux) or bright (10,000 lux) white light for 6 hours. Mice were injected with Fulvene-5, a triphenylmethane that inhibits NADPH oxidase, dissolved in vehicle (intralipid-DMSO) or vehicle alone. Intraperitoneal injections were given daily for two weeks. Electroretinograms (ERGs) were taken 0, 7, and 14 days following light exposure. Mice were exposed to either dim light (control) or bright light of an intensity that causes retinal degeneration (Light Induced Retinal Degeneration; LIRD). This is a classic rodent model of retinal degeneration. For each lighting condition, half the animals were injected with vehicle and the other half were injected with Fulvene 5. Electroretinograms (ERGs) of the treated mice were measured at one week post-exposure. An ERG is a measure of the change in electrical potential across the eyeball in response to a flash of light, and is used as an indication of retinal function.

[2] = molecular target: T1, Nox2 enzyme (Homo sapiens, UniProt P04839); assay: Inhibition of Nox2 enzyme: H2O2 production in PMA-stimulated Cos-phox cells (homovanillic acid assay); assay type: cell-based; conditions: 1 μM, 5 μM, or 20 μM, FIG. 1
T1 construct: expressed in transfected cells; host or cells: Cos-phox cells (COS-7 derived, per the cited Price et al. 2002; own knowledge)
T1 sequence (P04839 2-570 limits assumed): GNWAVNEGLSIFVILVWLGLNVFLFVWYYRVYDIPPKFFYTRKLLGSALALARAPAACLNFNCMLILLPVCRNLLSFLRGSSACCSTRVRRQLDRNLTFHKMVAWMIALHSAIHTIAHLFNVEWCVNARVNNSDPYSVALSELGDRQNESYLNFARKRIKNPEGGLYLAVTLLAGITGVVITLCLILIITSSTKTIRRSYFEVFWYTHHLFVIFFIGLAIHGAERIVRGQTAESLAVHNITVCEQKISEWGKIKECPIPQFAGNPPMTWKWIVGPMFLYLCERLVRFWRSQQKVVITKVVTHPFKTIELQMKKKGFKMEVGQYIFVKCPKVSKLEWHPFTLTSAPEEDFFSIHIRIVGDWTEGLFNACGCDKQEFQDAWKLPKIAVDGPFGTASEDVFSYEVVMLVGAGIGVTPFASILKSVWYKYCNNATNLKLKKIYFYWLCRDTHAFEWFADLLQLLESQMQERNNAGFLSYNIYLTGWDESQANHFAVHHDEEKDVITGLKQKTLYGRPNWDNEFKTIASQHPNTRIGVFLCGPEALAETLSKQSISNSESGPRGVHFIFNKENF
T1 sequence (P13498 2-195 partner limits assumed): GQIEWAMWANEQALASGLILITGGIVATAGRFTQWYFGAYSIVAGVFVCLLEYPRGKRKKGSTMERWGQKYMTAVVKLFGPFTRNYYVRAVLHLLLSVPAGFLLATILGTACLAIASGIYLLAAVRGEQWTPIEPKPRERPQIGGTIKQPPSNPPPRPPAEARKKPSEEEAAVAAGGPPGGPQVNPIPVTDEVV
Procedure: Various test compounds were examined for activity against Nox2 enzyme by determining hydrogen peroxide (H2O2) production in phorbol 12-myristate 13-acetate (PMA)-stimulated Cos-phox cells treated with different concentrations of vehicle control or a test compound listed in Table 1.
Cos-phox cells have been described previously in Price et al., Blood, 99: 2653-61 (2002), which is incorporated herein by reference.
H2O2 release was measured using the homovanillic acid assay as described previously in Martyn et al., Cellular Signalling, 18:69-82 (2006) and Perry et al., J. Invest. Dermatol., 126:2316-22 (2006), which are incorporated herein by reference. Briefly, 1.5-1.75×10^5 cells/well of a 12-well plate were seeded with Cos-phox cells. The following day, cells were washed once with Hank's balanced salt solution, stimulated with […] phorbol 12-myristate 13-acetate (PMA), and then preincubated for 15 minutes with either vehicle control or different concentrations (i.e., 1 μM, 5 μM, or 20 μM) of test compound no. 8, 10, 15, 16, 17, or 18 in 1 ml of media. The cells were then washed once with Hank's balanced salt solution. Vehicle control or different concentrations of test compound no. […] Fluorescence was read on a BioTek Synergy HT (BioTek Instruments Inc., Winooski, Vt., CA) with an excitation of 320 nm and emission of 440 nm. […]

SMILES | Suppression of ERG b-wave amplitude [1] | Effect of bright light exposure on retinal function as measured by ERG ([1]; ip) | Inhibition of Nox2 enzyme (production of H2O2 relative to untreated control) [2]
Cc1[nH]cnc1C=C1C=CC=C1 [Test compound 10, 4-(cyclopenta-2,4-dienylidinemethyl)-5-methyl-1H-imidazole] | no suppression of ERG amplitude | precluded the damaging effects of bright light exposure on retinal function | –
CN(C)C=C1C=CC=C1 [compound 8] | – | – | inhibited Nox2 enzyme in a dose-dependent manner
